Data on three molecules can be found in ChEMBL document CHEMBL1152560, “Substituted 2-arylbenzothiazoles as kinase inhibitors: hit-to-lead optimization” (Bioorg Med Chem, 2009).

Each structure is given as a SMILES string.

Test [1] deals with T1, Serine/threonine-protein kinase Chk1 (Homo sapiens) (UniProt O14757).
T1 sequence (whole entry): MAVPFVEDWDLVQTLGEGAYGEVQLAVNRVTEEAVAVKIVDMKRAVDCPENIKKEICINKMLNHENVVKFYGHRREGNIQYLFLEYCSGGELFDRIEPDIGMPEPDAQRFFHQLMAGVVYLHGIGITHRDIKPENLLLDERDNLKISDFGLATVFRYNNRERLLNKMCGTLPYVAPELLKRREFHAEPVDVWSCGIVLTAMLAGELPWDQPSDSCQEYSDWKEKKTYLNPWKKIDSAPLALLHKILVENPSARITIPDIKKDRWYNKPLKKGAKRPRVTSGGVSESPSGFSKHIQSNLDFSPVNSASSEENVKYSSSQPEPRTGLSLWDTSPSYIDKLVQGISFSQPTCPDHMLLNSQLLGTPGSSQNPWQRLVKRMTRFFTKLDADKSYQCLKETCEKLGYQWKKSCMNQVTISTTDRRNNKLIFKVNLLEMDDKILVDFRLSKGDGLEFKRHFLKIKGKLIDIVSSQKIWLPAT
The test is described as follows: Residual activity of CHK1 at 1 uM by microplate scintillation counting.

For test [2], the target named is Ephrin type-A receptor 7 (Homo sapiens) (UniProt Q15375). The test can be described thus: Residual activity of EPHA7 at 1 uM by microplate scintillation counting.
Chain of Ephrin type-A receptor 7 (Homo sapiens) (Q15375 28-998 limits assumed): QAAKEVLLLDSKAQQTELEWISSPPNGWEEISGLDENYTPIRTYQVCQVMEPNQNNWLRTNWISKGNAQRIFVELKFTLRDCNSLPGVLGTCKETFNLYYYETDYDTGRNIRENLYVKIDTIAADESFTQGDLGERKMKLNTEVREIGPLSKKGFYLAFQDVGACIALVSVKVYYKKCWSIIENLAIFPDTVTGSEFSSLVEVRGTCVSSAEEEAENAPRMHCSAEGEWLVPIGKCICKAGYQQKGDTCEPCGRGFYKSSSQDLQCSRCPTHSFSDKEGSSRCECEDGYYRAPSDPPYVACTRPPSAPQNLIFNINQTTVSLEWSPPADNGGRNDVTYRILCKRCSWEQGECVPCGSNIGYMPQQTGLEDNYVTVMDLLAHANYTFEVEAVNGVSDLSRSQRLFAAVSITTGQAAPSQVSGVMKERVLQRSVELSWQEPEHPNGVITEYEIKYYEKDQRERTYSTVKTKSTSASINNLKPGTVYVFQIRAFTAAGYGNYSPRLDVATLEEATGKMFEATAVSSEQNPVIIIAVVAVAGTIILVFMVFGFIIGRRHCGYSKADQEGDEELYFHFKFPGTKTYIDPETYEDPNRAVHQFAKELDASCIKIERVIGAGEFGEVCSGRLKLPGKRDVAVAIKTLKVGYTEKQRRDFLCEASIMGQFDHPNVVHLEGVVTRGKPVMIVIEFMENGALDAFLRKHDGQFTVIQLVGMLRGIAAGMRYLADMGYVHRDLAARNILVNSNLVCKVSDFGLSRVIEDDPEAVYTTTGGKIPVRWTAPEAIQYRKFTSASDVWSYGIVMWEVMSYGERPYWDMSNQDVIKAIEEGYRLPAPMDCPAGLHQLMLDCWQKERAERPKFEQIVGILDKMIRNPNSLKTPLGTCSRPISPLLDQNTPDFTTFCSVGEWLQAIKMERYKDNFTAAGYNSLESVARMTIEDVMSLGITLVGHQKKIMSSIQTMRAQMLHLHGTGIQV
Test [3] has as its target MAP/microtubule affinity-regulating kinase 3 (Homo sapiens) (UniProt P27448). The test is described as follows: Residual activity of MARK3 at 0.1 uM by microplate scintillation counting.
Test [4] deals with T2, Tyrosine-protein kinase ZAP-70 (Homo sapiens) (UniProt P43403).
T2 sequence (whole entry): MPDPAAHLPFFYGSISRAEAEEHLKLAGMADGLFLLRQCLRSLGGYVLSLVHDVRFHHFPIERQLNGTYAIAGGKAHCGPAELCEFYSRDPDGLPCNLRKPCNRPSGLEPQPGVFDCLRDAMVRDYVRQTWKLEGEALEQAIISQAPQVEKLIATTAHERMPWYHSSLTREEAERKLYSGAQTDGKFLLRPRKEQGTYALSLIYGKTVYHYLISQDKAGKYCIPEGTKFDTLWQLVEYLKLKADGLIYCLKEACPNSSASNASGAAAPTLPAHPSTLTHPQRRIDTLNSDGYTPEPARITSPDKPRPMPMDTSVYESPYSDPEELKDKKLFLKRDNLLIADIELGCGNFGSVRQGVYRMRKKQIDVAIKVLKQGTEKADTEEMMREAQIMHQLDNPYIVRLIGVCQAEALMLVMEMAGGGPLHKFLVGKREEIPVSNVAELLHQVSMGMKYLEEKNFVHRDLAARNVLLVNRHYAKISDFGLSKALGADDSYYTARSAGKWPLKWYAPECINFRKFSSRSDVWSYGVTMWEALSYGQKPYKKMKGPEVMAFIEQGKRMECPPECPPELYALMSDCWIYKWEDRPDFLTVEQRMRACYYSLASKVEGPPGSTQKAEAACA
The test is described as follows: Residual activity of ZAP70 at 1 uM by microplate scintillation counting.

Test [5] has as its target T3, Ephrin type-B receptor 1 (Homo sapiens) (UniProt P54762).
T3 sequence (whole entry): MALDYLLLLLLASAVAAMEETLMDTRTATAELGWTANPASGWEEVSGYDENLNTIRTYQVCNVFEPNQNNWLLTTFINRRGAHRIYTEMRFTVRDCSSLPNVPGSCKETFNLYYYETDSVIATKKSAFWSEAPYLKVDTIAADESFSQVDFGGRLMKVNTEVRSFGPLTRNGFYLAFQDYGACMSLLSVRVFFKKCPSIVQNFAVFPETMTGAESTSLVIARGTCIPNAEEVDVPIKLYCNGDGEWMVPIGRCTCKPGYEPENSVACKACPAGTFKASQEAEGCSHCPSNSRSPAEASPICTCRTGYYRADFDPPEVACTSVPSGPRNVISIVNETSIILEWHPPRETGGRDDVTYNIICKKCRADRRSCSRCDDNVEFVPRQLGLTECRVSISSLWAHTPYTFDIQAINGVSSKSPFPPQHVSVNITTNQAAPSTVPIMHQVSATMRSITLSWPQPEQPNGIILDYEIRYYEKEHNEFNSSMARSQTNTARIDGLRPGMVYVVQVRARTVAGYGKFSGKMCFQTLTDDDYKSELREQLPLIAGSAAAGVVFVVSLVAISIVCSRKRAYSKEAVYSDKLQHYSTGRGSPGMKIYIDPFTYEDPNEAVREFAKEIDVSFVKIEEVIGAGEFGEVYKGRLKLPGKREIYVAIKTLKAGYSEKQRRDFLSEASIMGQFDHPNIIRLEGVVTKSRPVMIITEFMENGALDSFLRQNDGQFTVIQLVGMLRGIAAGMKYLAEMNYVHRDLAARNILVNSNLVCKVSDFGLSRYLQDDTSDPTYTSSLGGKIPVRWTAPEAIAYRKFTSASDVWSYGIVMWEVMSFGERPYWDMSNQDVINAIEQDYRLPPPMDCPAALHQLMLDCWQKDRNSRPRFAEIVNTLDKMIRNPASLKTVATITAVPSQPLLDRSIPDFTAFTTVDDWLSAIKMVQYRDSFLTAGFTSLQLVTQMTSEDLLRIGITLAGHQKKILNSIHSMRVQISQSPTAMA
The test is described as follows: Residual activity of EPHB1 at 10 uM by microplate scintillation counting.

In test [6] the target is Glycogen synthase kinase-3 alpha (Homo sapiens) (UniProt P49840). The test is described as follows: Residual activity of GSK3alpha at 10 uM by microplate scintillation counting.
Chain of Glycogen synthase kinase-3 alpha (Homo sapiens) (P49840 2-483 limits assumed): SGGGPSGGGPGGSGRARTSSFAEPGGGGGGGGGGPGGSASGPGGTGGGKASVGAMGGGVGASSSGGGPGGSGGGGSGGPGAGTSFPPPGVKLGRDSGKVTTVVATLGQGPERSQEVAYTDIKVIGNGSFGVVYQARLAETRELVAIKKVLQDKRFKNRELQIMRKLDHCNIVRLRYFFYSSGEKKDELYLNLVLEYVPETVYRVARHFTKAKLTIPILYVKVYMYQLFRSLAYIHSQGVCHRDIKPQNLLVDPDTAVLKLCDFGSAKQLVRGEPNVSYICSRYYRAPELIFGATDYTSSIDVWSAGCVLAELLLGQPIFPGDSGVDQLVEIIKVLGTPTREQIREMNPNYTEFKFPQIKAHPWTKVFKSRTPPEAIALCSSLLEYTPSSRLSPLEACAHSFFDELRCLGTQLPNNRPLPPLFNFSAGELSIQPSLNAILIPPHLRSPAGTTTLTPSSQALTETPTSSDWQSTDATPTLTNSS
Test [7] concerns the target T4, Interleukin-1 receptor-associated kinase 4 (Homo sapiens) (UniProt Q9NWZ3).
T4 sequence (whole entry): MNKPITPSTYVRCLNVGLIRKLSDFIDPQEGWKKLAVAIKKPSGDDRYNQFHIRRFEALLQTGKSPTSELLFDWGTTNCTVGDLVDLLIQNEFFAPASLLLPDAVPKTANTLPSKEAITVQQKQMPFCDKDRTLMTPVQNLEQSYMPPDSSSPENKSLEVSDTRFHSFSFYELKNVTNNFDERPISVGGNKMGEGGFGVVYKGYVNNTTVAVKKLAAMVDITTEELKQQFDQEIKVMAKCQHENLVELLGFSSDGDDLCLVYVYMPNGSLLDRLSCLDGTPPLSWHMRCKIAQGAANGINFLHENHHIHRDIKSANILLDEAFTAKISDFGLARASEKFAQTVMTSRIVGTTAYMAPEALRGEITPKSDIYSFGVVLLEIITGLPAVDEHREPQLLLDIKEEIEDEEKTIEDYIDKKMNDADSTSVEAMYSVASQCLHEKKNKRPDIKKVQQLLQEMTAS
The test is described as follows: Residual activity of IRAK4 at 10 uM by microplate scintillation counting.

Test [8] addresses Ephrin type-A receptor 7 (Homo sapiens) (UniProt Q15375). The test is described as follows: Residual activity of EPHA7 at 0.1 uM by microplate scintillation counting.

Chain of MAP/microtubule affinity-regulating kinase 3 (Homo sapiens) (P27448 whole entry, looked up): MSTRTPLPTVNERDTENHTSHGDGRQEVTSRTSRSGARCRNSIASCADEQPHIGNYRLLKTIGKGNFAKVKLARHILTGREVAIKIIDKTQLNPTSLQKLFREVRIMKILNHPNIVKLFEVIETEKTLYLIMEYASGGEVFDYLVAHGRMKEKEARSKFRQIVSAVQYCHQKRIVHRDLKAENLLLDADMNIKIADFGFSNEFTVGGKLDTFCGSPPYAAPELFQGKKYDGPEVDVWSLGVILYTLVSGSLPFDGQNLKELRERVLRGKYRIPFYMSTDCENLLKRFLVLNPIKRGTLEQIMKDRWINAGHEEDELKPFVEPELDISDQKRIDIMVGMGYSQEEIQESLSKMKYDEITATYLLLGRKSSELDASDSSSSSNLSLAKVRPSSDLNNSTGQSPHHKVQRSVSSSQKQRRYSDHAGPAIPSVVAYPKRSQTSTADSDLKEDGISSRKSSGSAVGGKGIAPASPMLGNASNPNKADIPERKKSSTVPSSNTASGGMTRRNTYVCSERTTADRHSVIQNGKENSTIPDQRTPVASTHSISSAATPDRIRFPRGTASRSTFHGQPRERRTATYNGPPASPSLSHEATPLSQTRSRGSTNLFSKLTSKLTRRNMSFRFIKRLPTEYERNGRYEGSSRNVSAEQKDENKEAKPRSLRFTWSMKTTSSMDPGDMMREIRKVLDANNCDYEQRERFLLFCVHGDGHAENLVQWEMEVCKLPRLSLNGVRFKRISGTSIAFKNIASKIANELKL

One may read the residual activity as the signal under treatment as a percentage of the control signal. For `COc1cc2c(Oc3ccc(-c4nc5ccccc5s4)cc3F)ncnc2cc1OCCCN1CCN(C)CC1`, the residual activity in test [1] is 102%; in test [2], 94%; in test [3], 87%; in test [4], 120%; in test [5] it was 124%; in test [6], 27%. The residual activity worked out at 34% in test [7] and 103% in test [8].
In the case of `COc1cc2c(Oc3ccc(-c4nc5ccccc5s4)cc3)ncnc2cc1OCCCN1CCN(C)CC1`, the residual activity worked out at 103% in test [1]; 102% in test [2]; 92% in test [3]; 116% in test [4]; 429% in test [5]; 28% in test [6]. The residual activity in test [7] amounted to 36%; in test [8], 88%.
Take `COc1cc2c(Oc3ccc(-c4nc5ccccc5s4)cc3)ncnc2cc1OCCCN1CCCC1`: the residual activity in test [1] came out at 83%; in test [2] it was 114%; in test [3], 84%; in test [4] it was 145%; in test [5] it was 223%; in test [6], 62%. In addition, the results for the residual activity in test [7] and in test [8] were 26% and 111%, respectively.
